In ChEMBL document CHEMBL1201862, “PubChem BioAssay data set” (2004):
Active and inactive are the calls of the source.

How the values were obtained:
Nonstructural protein 1 = Nonstructural protein 1 (Influenza A virus, UniProt Q194T2); type: functional, Influenza A virus (A/California/07/2009(H1N1))
[1] = target: T1, E3 ubiquitin-protein ligase XIAP (Homo sapiens, UniProt P98170); assay: Counter Screen using XIAP-Bir3 for Chemical Antagonists of Bir1/2 domains of IAP-family anti-apoptotic proteins. [Related pubchem assays (depositor defined):AID1018, AID1449, AID1514, AID1638, AID1749, AID1750, AID488957, AID488963]
H9c2 = assay: cells; type: functional, cell-based; conditions: Rattus norvegicus, H9c2, Myocardium;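 note: confirmatory concentration-response retest of ultra-high-throughput screening hits for modulation of myocardial damage; cell death induced by hydrogen peroxide oxidative stress; compound pretreatment for 60 min then peroxide exposure for 2 h; potency is for protecting the cells against peroxide damage rather than for killing them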
[2] = target: T1, E3 ubiquitin-protein ligase XIAP; assay: XIAP antagonists, biochemical, IAP family, fluorescence polarization (AID 1018); type: functional
Cytochrome P450 3A4 = Cytochrome P450 3A4 (Homo sapiens, UniProt P08684);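 note: CYP3A4 tested as one member of a cytochrome P450 panel screen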
HEK293 [3] = assay: cells; type: functional, cell-based; conditions: Homo sapiens
[4] = target: Nucleotide-binding oligomerization domain-containing protein 2 (Homo sapiens, UniProt Q9HC29); assay: NOD2 signaling inhibitors, cell-based, luminescence, uHTS, HEK293 (AID 1566); type: functional
HEK293 [5] = assay: cells; type: functional, cell-based; conditions: Homo sapiens; remark: listed apart in the source
HEK293 [6] = assay: NOD1 signaling inhibitors, primary screen, cell-based, luminescence, uHTS (AID 1578); type: functional; conditions: Homo sapiens
HEK293 [7] = assay: NOD2 signaling inhibitors in MDP-stimulated cells, cell-based, uHTS, luminescence (AID 2001); type: functional; conditions: Homo sapiens
Streptokinase A = target: T2, Streptokinase A (Streptococcus pyogenes serotype M1, UniProt P10520); assay: S. pyogenes streptokinase expression inhibitors, potency, dose response, plasminogen activation absorbance, OD405 (AID 1914); type: functional, Streptococcus pyogenes M1 GAS;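 note: secreted streptokinase activity via plasminogen activation per viability signal from cell pellet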
T2 sequence (P10520 whole entry): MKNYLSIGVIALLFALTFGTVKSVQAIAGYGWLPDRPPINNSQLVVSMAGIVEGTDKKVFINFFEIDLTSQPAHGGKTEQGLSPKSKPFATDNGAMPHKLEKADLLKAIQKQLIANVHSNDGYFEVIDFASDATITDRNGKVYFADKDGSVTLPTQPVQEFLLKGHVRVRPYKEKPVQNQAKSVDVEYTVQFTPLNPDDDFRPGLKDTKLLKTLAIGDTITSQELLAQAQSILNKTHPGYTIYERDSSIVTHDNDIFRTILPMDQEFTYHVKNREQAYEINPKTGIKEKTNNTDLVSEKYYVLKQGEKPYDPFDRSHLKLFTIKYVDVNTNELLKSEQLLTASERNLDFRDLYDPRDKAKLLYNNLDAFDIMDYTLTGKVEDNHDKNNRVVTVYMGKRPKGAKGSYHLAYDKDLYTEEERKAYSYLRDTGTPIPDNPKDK

HEK293 [8] = assay: cells; type: functional, cell-based; conditions: Homo sapiens; remark: listed apart in the source
Streptococcus = assay: Group A Streptococcus viability loss, dose response, counter-screen for streptokinase expression inhibitor project, luminescence, BacTiterGlo (AID 1915); type: functional, organism-based;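 note: potency for reduction of bacterial viability or growth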
[9] = tested on: Streptococcus sp. 'group A'; assay: growth inhibition of control SK(-) GAS strain, dose response, counter-screen for streptokinase expression inhibitor project, luminescence, kanamycin, BacTiterGlo, confirmation (AID 1900); type: functional, organism-based
[10] = target: T3, Disintegrin and metalloproteinase domain-containing protein 17 (Homo sapiens, UniProt P78536); assay: ADAM17 protease inhibitors, dose response, counter-screen for ADAM10 exosite inhibitor project, biochemical, quenched FRET substrate (AID 743253)
[11] = Luminescence Cell-Based Dose Retest to Confirm Inhibitors of Cancer Stem Cells. [Related pubchem assays (depositor defined):AID2717, AID2721]; type: functional; conditions: Homo sapiens
BJ [12] = assay: cells; type: functional, cell-based; conditions: Homo sapiens
Protein RecA = target: T4, Protein RecA (Mycobacterium tuberculosis, UniProt P9WHJ3); assay: Fluorescence Cell-Free Homogeneous Dose Retest to Identify Inhibitors of RecA-Intein Splicing Activity. [Related pubchem assays (depositor defined):AID2097, AID2223, AID489010, AID492950]; type: functional
T4 sequence (P9WHJ3 whole entry): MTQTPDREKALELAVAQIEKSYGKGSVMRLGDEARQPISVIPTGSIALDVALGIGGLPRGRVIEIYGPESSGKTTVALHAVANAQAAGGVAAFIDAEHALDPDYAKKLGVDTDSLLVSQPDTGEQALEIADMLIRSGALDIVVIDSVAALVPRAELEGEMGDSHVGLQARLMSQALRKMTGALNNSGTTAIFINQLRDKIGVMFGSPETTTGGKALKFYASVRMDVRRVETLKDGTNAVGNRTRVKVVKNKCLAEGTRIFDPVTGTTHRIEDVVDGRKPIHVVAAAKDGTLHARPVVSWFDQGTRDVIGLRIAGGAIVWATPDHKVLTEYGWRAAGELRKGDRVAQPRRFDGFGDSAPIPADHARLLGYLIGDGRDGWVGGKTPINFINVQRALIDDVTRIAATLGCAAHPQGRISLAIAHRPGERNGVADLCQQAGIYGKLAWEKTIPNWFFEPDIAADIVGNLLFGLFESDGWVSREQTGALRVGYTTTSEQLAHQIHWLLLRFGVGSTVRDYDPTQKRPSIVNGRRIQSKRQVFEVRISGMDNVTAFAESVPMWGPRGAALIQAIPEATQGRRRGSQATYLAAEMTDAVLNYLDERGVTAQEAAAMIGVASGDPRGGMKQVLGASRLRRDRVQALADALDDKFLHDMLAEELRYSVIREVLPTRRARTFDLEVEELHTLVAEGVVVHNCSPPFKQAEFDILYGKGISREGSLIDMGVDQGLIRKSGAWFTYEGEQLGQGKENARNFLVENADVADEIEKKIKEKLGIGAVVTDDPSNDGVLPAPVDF

[13] = cytotoxicity toward DRD oncogenic fibroblasts, dose response, cell-based, non-viral oncogenic, luminescence (AID 1934); type: functional; conditions: Homo sapiens
BJ [14] = assay: cytotoxicity toward BJ-TERT-LT-ST fibroblasts, dose response, cell-based, RAS-independent, luminescence (AID 1935); type: functional; conditions: Homo sapiens;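 note: BJ fibroblasts immortalized with TERT plus LT and ST oncogenes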
BJ [15] = assay: cytotoxicity toward BJ-TERT fibroblasts, dose response, cell-based, RAS-independent, luminescence (AID 1933); type: functional; conditions: Homo sapiens
[16] = target: T5, Replicative DNA helicase DnaB (Mycobacterium tuberculosis, UniProt P9WMR3); assay: DnaB intein splicing inhibitors, dose response, biochemical, cell-free fluorescence (AID 449749); type: functional
T5 sequence (P9WMR3 whole entry): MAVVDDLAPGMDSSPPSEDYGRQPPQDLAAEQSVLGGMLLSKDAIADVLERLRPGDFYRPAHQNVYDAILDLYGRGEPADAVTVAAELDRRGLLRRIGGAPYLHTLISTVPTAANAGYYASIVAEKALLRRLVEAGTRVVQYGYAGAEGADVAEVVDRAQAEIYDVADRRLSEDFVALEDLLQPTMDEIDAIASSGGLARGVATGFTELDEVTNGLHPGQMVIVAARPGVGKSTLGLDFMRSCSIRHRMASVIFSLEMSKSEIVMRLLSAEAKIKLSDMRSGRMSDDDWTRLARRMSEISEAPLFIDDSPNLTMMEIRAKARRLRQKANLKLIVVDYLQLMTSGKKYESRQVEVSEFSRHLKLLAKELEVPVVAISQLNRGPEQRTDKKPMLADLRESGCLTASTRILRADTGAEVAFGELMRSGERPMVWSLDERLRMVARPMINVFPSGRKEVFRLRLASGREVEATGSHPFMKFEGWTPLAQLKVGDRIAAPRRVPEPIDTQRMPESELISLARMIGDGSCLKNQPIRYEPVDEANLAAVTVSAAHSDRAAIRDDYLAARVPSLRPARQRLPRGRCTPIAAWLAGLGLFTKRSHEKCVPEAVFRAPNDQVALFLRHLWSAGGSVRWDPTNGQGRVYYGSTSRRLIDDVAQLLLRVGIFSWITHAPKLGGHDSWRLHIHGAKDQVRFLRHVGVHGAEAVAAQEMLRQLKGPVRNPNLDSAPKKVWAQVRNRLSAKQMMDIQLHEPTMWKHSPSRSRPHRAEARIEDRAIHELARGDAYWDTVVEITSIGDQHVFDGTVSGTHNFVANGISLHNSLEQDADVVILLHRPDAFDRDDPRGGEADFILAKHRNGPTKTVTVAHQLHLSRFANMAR

[17] = inhibitors of intracellular T. cruzi replication, confirmation, NIH3T3 host cells, beta-gal luminescence (AID 2044); type: functional, cell-based;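 note: intracellular parasites grown in NIH/3T3 mouse fibroblasts as host cells; luminescent beta-galactosidase reporter signal from transgenic T. cruzi replicating inside host cells; inhibitors lower the luminescence signal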
Protein Wnt-3a = Protein Wnt-3a (Mus musculus, UniProt P27467); assay: Wnt3a-driven reporter signaling inhibition, dose response, selectivity assay for Gli-SUFU antagonist project, Wnt-LIGHT cells, luminescence (AID 651570); type: functional; conditions: read-out: IC50_Mean;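 note: Wnt-LIGHT reporter cells stimulated with conditioned medium from Wnt3a-producing cells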
[18] = cytotoxicity toward NIH3T3 fibroblasts, dose response, counter-screen, cell-based, ATP luminescence, mouse fibroblasts (AID 2010); type: functional;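 note: cells exposed to compound for about 90 hours before reading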
[19] = cytotoxicity in MIN6 insulinoma cells, dose response, cytotoxicity control, cell-based, mouse insulinoma (AID 2122); type: functional;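 note: confirmatory high-throughput counterscreen run to flag cytotoxic compounds; mouse MIN-6 beta cells carrying an insulin promoter eGFP reporter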
[20] = insulin promoter down-regulators in MIN6 cells, imaging, high-content screening, mouse beta cells (AID 1628); type: functional
[21] = NIH-3T3 fibroblast cytotoxicity, dose response, cytotoxicity control, cell-based, fluorescence, Alamar Blue, secondary assay (AID 2327); type: functional;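 note: NIH-3T3 mouse fibroblasts cultured with fluconazole at 8 µg/mL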
[22] = C. albicans growth with fluconazole, confirmation, fluorescence, retest (AID 2467); type: functional, cell-based
[23] = target: Kappa-type opioid receptor (Homo sapiens, UniProt P41145); assay: SAR analysis of small molecule agonists of the kappa opioid receptor via a luminescent beta-arrestin assay - Set 3. [Related pubchem assays (depositor defined):AID1777, AID1785, AID1786, AID1966, AID2133, AID2136, AID2284, AID2500]; type: functional
[24] = Luminescence Cell-Based Dose Response HTS to Identify Inhibitors of 5'UTR Stem-Loop Driven Prion Protein mRNA Translation in H4 Neuroglioblastoma Cells. [Related pubchem assays: 1827 (Project Summary), 1813 (Primary HTS)]; type: functional
[25] = inhibitors of firefly luciferase expression or activity, dose response, H4 neuroglioma cells, luminescence (AID 1990); type: functional, cell-based
[26] = inhibitors of SNCA 5'UTR-driven reporter translation, confirmation, H4 neuroglioma cells, luminescence (AID 1988); type: functional, cell-based
[27] = ADAM10 protease inhibitors, dose response, selectivity assay for ADAM17 exosite inhibitor project, biochemical, FRET peptide substrate, recombinant human ADAM10 (AID 743259);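 note: ADAM10 enzyme cleaving a FRET peptide substrate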
[28] = target: T3, Disintegrin and metalloproteinase domain-containing protein 17; assay: exosite inhibitors of ADAM17, dose response, biochemical (AID 743260)
cells [29] = type: functional, cell-based
cells [30] = type: functional, cell-based; remark: listed apart in the source

T1 sequence (P98170 whole entry): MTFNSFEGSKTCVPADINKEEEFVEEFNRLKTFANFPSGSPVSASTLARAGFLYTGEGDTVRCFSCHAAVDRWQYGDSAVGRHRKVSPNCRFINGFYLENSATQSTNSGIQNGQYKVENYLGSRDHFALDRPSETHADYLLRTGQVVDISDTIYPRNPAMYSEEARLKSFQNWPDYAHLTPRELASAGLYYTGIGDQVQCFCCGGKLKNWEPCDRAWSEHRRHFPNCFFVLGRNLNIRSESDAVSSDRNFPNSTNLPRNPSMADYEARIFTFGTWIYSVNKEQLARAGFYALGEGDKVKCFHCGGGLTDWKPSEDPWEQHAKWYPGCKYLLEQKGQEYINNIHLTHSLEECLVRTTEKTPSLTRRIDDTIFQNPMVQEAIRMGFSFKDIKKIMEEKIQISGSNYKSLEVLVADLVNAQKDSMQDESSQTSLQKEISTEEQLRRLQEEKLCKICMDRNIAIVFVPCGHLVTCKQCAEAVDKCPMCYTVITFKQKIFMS
T3 sequence (P78536 whole entry, the tested form may be a part): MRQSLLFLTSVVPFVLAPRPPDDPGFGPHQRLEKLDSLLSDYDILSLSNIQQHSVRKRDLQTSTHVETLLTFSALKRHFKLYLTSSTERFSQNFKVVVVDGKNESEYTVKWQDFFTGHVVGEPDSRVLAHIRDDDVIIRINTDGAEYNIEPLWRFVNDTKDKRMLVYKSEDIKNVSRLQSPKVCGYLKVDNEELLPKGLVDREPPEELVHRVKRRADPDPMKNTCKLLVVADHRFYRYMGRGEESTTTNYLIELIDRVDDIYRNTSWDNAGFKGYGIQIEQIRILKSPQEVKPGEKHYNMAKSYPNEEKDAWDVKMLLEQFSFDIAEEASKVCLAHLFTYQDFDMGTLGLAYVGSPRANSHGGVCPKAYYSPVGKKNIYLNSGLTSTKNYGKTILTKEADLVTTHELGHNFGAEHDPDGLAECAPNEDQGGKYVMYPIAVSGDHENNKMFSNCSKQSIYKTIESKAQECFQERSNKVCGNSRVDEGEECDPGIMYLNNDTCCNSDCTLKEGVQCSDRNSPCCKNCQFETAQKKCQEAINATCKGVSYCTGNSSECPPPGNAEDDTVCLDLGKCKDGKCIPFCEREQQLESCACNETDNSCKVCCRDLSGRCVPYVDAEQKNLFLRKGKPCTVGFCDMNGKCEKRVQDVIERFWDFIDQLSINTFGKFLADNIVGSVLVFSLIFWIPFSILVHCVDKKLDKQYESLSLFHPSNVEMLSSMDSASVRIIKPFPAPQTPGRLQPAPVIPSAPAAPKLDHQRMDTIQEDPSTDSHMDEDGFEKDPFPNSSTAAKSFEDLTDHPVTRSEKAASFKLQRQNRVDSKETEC
Chain of Nucleotide-binding oligomerization domain-containing protein 2 (Q9HC29 whole entry, the tested form may be a part): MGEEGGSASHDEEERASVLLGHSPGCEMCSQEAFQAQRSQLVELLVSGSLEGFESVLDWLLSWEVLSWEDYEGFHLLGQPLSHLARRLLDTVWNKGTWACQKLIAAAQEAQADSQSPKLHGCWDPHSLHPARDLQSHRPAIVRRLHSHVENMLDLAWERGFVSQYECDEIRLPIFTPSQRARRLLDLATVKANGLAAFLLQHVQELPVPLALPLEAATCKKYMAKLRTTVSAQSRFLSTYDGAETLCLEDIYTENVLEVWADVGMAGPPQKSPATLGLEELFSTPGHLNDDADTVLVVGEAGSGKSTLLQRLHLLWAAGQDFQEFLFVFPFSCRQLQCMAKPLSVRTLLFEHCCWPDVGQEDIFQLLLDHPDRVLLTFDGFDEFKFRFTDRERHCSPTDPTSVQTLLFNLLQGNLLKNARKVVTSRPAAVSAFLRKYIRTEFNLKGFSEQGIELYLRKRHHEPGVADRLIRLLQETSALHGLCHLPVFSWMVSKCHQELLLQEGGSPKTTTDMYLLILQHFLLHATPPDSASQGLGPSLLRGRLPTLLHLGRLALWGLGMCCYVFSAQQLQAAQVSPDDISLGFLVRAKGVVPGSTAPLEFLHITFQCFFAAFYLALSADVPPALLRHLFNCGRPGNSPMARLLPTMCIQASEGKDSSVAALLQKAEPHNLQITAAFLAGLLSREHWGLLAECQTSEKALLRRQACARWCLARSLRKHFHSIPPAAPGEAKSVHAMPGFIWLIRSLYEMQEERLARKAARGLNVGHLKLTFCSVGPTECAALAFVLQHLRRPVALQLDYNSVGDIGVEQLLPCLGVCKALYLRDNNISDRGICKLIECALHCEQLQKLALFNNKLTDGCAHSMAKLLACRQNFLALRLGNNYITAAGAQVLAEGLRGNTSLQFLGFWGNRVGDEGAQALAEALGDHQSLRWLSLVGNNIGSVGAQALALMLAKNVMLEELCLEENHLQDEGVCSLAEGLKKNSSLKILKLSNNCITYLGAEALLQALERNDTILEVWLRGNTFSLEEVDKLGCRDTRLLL
Chain of Cytochrome P450 3A4 (P08684 whole entry): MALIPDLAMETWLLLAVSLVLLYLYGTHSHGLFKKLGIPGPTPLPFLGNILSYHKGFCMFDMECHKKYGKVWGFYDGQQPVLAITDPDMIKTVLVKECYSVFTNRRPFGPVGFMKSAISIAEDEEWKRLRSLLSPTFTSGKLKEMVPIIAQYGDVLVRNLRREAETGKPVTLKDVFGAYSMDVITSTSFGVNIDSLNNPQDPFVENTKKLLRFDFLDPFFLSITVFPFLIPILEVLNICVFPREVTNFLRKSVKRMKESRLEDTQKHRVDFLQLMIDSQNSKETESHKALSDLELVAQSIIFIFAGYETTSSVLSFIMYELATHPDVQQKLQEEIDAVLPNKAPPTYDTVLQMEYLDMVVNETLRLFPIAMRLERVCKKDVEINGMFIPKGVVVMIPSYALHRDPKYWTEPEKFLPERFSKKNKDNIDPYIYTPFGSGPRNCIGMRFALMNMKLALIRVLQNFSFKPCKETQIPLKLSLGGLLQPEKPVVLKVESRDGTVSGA
Chain of Nonstructural protein 1 (Q194T2 whole entry): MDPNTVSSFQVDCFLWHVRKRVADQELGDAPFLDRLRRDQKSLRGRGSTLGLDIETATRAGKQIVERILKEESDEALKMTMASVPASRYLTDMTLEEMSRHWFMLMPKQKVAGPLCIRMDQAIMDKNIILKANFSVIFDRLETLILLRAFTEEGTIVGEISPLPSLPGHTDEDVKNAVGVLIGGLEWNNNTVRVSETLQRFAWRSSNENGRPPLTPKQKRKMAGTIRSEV
Chain of Kappa-type opioid receptor (P41145 whole entry): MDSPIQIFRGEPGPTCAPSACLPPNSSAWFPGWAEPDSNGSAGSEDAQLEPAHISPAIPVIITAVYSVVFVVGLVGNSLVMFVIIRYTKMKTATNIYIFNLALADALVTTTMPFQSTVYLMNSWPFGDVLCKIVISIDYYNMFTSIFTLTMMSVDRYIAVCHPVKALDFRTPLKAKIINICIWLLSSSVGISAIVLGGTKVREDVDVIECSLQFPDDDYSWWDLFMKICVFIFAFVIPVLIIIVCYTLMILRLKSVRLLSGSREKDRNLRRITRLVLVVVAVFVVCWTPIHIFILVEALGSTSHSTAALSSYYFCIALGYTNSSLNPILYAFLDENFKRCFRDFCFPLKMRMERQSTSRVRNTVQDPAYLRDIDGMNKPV
Chain of Protein Wnt-3a (P27467 whole entry): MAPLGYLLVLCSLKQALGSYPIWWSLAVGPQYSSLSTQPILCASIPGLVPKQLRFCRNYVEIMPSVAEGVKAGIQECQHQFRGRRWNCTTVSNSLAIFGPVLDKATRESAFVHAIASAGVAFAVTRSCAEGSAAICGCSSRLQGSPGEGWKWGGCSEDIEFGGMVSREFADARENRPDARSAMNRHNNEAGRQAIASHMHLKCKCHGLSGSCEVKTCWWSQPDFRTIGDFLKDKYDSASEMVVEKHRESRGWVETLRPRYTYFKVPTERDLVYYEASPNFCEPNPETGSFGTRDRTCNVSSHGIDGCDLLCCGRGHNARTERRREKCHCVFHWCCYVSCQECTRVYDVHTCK

O=C(CN1C(=O)CCC1=O)Nc1nc(-c2ccccn2)cs1
IC50 (Nonstructural protein 1): 4.83 µM (active) | IC50 [1]: > 100 µM (inactive) | IC50 (H9c2): 33.4 µM (inactive) | IC50 [2]: > 100 µM (not active)

O=C(COC(=O)C(Cc1ccccc1)NC(=O)c1ccco1)NC1CC1 (stereo unspecified)
IC50 [1]: > 100 µM (inactive) | IC50 [2]: > 100 µM (not active)

O=C(c1cccc(F)c1)N1CCC2(CCN(Cc3nccs3)CC2)CC1
AC50 (Cytochrome P450 3A4): inconclusive

CCOC(=O)N1CCC(=NNC(=O)c2ccccc2F)CC1
IC50 [1]: > 100 µM (inactive) | IC50 [2]: > 100 µM (not active)

COc1ccc(-c2c[nH]nc2-c2ccc(OCc3ccccc3)cc2O)cc1
IC50 (HEK293 [3]): 1.84 µM (active) | EC50 [4]: 2.22 µM (active) | IC50 (HEK293 [5]): > 20 µM (inactive) | EC50 (HEK293 [6]): 12.2 µM (active) | IC50 (HEK293 [7]): 3.21 µM (active) | EC50 (Streptokinase A): > 150 µM (inconclusive) | IC50 (HEK293 [8]): > 20 µM (inactive) | EC50 (Streptococcus): 17.7 µM (active) | EC50 [9]: 2.68 µM (active) | IC50 [10]: > 69.5 µM (inactive) | AC50 [11]: 6.84 µM (active)

c1ccc2cc(Sc3ncnc4c3oc3ccccc34)ccc2c1
AC50 (Cytochrome P450 3A4): inconclusive

Cc1cccc(CN2CCN(C(=O)CCl)CC2)c1
IC50 (HEK293 [3]): 13.9 µM (active) | EC50 [4]: > 20 µM (inactive) | EC50 (BJ [12]): > 150 µM (not active) | IC50 (HEK293 [5]): > 20 µM (inactive) | EC50 (HEK293 [6]): > 20 µM (inactive) | IC50 (HEK293 [7]): 16.7 µM (inactive) | EC50 (Protein RecA): 20.2 µM (active) | EC50 [13]: 31.2 µM (active) | EC50 (BJ [14]): > 150 µM (inconclusive) | IC50 (HEK293 [8]): > 20 µM (inactive) | EC50 (BJ [15]): 9.64 µM (inconclusive) | AC50 [16]: 21.4 µM (active)

CC(C)CCOC(=O)C[N+](C)(C)CCOC1CC2CCC1(C)C2(C)C (stereo unspecified)
EC50 [17]: 0.286 µM (active) | IC50 (Protein Wnt-3a): 5.09 µM (active) | EC50 [18]: > 60 µM (not active) | IC50 [19]: < 0.25 µM (active) | IC50 [20]: 0.643 µM (active) | EC50 [21]: > 160 µM (inactive) | EC50 [22]: 1.3 µM (active)

Clc1ccc(CSc2nnc(-c3ccccn3)n2Cc2ccccc2Cl)cc1Cl
EC50 [23]: 11.8 µM (inactive)

O=C(NC(CSCc1ccccc1)C(=O)N/N=C/c1ccc(O)cc1O)c1ccc([N+](=O)[O-])cc1 (stereo unspecified)
EC50 [24]: 10.9 µM (active) | EC50 [25]: 6.53 µM (inconclusive) | IC50 [19]: 3.07 µM (active) | IC50 [20]: 2.19 µM (active) | EC50 [26]: 5.27 µM (active) | IC50 [27]: > 69.5 µM (inactive) | IC50 [28]: > 69.5 µM (inactive) | EC50 (cells [29]): 9.52 µM (active) | AC50 [11]: 3 µM (active) | EC50 (cells [30]): > 350 µM (not active)

Cc1coc2c1C(=O)C(=O)c1c-2ccc2c(C)cccc12 [TANSHINONE I]
IC50 [19]: 2.8 µM (active) | EC50 (Streptokinase A): > 150 µM (not active) | IC50 [20]: 3.91 µM (active) | EC50 (Streptococcus): 7.63 µM (active) | EC50 [9]: 4.65 µM (active)
